Results as given in EP2881391A1, “Spiroindoline carbocycle derivatives and pharmaceutical compositions thereof” (Bayer Pharma Aktiengesellschaft, priority 2013, dated 2015).

Biological target: T1, human GnRH receptor (Homo sapiens, UniProt P30968)
T1 construct: line established by Prof; Thomas Gudermann; host or cells: CHO cells
T1 sequence (P30968 1-328): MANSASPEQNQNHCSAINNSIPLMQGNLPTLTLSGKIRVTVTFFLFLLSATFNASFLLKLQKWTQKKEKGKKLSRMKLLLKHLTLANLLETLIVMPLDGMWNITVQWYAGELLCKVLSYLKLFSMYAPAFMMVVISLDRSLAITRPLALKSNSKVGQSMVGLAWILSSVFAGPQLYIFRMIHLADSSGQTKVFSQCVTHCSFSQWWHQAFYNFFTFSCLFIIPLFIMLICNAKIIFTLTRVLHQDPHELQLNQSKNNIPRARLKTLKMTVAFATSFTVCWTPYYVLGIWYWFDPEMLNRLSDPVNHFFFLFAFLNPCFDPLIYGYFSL
Assay: IP-One HTRF assay (inhibition of GnRH-R activation by buserelin)
Assay type: cell-based
Settings: IP-One HTRF assay with buserelin (at EC80) stimulation; CHO cells stably expressing human GnRH receptor; tested 20 µM to 1 nM; read-out: Potency IC50
Method in brief: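 CHO cells stably expressing human GnRH-R, pre-incubated 20 min at 22°C with compound (10 concentrations, 20 µM to 1 nM, duplicates), then stimulated 1 h at 37°C with buserelin or LHRH at EC50 or EC80 in pH 7.4 buffer with 50 mM LiCl. IP1 read by HTRF 665/620 nm ratio; IC50 by 4-parameter fit.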

`CC(C)=CCC1N(S(=O)(=O)c2ccc(F)cc2)c2ccc(C(=O)Nc3cccc(S(N)(=O)=O)c3)cc2C12CCC(O)(C(F)(F)F)CC2` (stereo not shown) [Example 16, 1'-[(4-fluorophenyl)sulfonyl]-4-hydroxy-2'-(3-methylbut-2-en-1-yl)-N-(3-sulfamoylphenyl)-4-(trifluoromethyl)-1',2'-dihydrospiro[cyclohexane-1,3'-indole]-5'-carboxamide] showed an IC50 of 1.85 µM.
